Experimental data taken from patent US7794995B2, “Purified PKB Ser 473 kinase and uses thereof” (priority 2002, dated 2010).
Entries after “also recorded” stand apart in the source; their conditions may differ.

Tests used:
[1] = molecular target: T1, PDK1 (Homo sapiens, UniProt O15530); details: literature: Hill et al. 2001; cited from earlier work
T1 sequence (O15530 1-556): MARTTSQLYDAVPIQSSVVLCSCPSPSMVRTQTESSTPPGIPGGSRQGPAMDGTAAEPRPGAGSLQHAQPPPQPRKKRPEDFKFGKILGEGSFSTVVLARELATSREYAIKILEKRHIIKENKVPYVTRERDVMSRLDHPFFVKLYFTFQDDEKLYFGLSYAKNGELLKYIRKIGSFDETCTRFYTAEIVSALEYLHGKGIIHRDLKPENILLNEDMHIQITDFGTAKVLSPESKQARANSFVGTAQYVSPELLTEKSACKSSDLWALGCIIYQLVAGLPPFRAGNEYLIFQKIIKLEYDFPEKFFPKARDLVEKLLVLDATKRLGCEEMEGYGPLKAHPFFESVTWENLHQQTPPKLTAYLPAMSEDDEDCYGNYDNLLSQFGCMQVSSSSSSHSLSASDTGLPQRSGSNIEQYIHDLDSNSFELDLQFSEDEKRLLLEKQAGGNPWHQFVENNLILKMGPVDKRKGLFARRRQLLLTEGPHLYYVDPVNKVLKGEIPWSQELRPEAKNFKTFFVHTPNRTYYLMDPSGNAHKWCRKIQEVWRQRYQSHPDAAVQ

[2] = tested on: PKB Ser473 kinase; details: second kinase activity, taken to be the PKB Ser473 kinase; 0-100 microM tested
[3] = tested on: PKB Ser473 phosphorylation; details: literature: Hill et al. 2001; Alessi et al. 1996; cited from earlier work
[4] = tested on: PKB Ser473 kinase; experiment: Ser473 kinase activity (FSY/FAY peptide assay) in subcellular fractions of treated serum-starved HEK293 cells; assay type: cell-based, human; details: 0.1 microM insulin, pervanadate 0.1 mM, 10 mins, LY294002 50 microM, 30 mins, versus basal
Description: HEK 293 cells transiently transfected with the PKB constructs were serum starved, stimulated or not with 0.1 mM pervanadate for 10 min at 37° C., and subcellular fractions were generated. Briefly, HEK 293 cells were washed once in ice-cold phosphate-buffered saline, and scraped in ice-cold fractionation buffer containing 20 mM HEPES-NaOH, pH 7.4, 250 mM sucrose, phosphatase inhibitors (10 mM sodium fluoride, 1 mM sodium pyrophosphate, 0.1 mM sodium orthovanadate, 2 μM microcystin LR [Alexis]), and protease inhibitors (1 mM PMSF and 1 mM benzamidine). After homogenization either by 10 passes through a 26-gauge needle, or by using a Kinematica homogenizer (10 strokes on speed 2 followed by 30 strokes on speed 10), subcellular fractions were prepared as previously described (Hill and Hemmings, 2002, Methods Enzymol 345: 448-463). The plasma membrane pellets were resuspended in 50 mM Tris-HCl (pH7.4) containing protease and phosphatase inhibitors as described above. Protein concentration of the subcellular fractions was determined by the Bradford method (Bio-Rad), using bovine serum albumin as standard. […]
Next, it was examined if membrane-associated Ser473 kinase activity was dependent on PI3-kinase signalling. […] PM fractions were assayed for Ser473 kinase activity, and also analyzed by immunoblotting for phospho-PKB and total PKB.

[5] = tested on: PKB phosphorylation on Thr308 and Ser473; experiment: Immunoblotting of plasma membrane fractions for phospho-PKB and total PKB after cell treatment; assay type: cell-based, human; details: serum-starved HEK293 cells, immunoblot; for PKB phosphorylation on Thr308 and Ser473: 0.1 microM insulin, pervanadate 0.1 mM, 10 mins
Description: The presence of PKB in each fraction was determined by immunoblotting with an anti-HA antibody (12CA5). In addition, the phosphorylation status of PKB in each of the fractions was assessed by immunoblotting with phospho-specific PKB antibodies after immunoprecipitation with the HA antibody. Briefly, following SDS-PAGE, proteins were transferred onto Immobilon-P membranes (Millipore). Non-specific signals were blocked by incubating the membrane in TBST buffer (50 mM Tris-HCl, pH 7.4, 150 mM NaCl, 0.1% Tween-20) containing 5% skim milk for 1 hour at room temperature. Incubation with antibodies was performed in TBST for phospho-specific antibodies, TBST containing 1% skim milk for polyclonal antibodies and TBST containing 5% skim milk for monoclonal antibodies, at 4° C. overnight. Antibodies specific for PKB phosphorylated on Thr308 are commercially available (Cell Signalling Technologies). Antibodies specific for PKB phosphorylated on Ser473 was produced and purified as previously described (Hill and Hemmings, 2002, Methods Enzymol 345: 448-463). Pan-PKB antibody has been previously described (Jones et al., 1991, Proc Natl Acad Sci USA 88: 4171-4175).
Next, it was examined if membrane-associated Ser473 kinase activity was dependent on PI3-kinase signalling. Serum-starved HEK293 cells were treated with 0.1 microM insulin, the insulin mimetic pervanadate (0.1 mM, 10 mins.), the PI 3-kinase inhibitor LY294002 (50 microM, 30 mins.), or left untreated. PM fractions were assayed for Ser473 kinase activity, and also analyzed by immunoblotting for phospho-PKB and total PKB.

[6] = tested on: PKBα; experiment: Subcellular fractionation of HEK 293 cells transfected with PKB constructs, anti-HA immunoblotting; assay type: cell-based, human; details: 0.1 mM pervanadate, 10 min, 37° C., serum-starved transfected HEK 293 cells
From the text: In order to characterize and purify the PKB Ser473 kinase, we reasoned that the kinase might be constitutively active at the plasma membrane (PM). To this end, we developed a subcellular fractionation protocol to generate fractions enriched in the PM. To determine the efficacy of the procedure, the fractionation behavior of products of two PKB constructs was examined: hemagglutinin (HA) tagged PKBα (HA-PKBα) and HA-PKBα containing a myristoylation/palmitylation signal (m/p-HA-PKBα).
HEK 293 cells transiently transfected with the PKB constructs were serum starved, stimulated or not with 0.1 mM pervanadate for 10 min at 37° C., and subcellular fractions were generated. […] Protein concentration of the subcellular fractions was determined by the Bradford method (Bio-Rad), using bovine serum albumin as standard. […]
The presence of PKB in each fraction was determined by immunoblotting with an anti-HA antibody (12CA5). In addition, the phosphorylation status of PKB in each of the fractions was assessed by immunoblotting with phospho-specific PKB antibodies after immunoprecipitation with the HA antibody. […]

Compound | Effect on PDK1 [1] | Staurosporine concentration up to which the kinase activity is insensitive [2] | Sensitivity of insulin-stimulated PKB Ser473 phosphorylation to the inhibitor [3] | Ser473 kinase activity in plasma membrane fractions [4] | PKB phosphorylation on Thr308 and Ser473 [5] | Translocation of membrane-targeted m/p-HA-PKBα [6] | Translocation of wild type HA-PKBα to the plasma membrane fraction [6] | Potency as activator of PKB phosphorylation compared with insulin [5]
CN[C@@H]1C[C@H]2O[C@@](C)([C@@H]1OC)n1c3ccccc3c3c4c(c5c6ccccc6n2c5c31)C(=O)NC4 [staurosporine] | inhibits PDK1 | > 100 µM | staurosporine-insensitive; also recorded: not sensitive |  |  |  |  | 
insulin |  |  |  | neither stimuli increased Ser473 kinase activity above basal levels | induced PKB phosphorylation on both Thr308 and Ser473 |  |  | 
pervanadate |  |  |  | neither stimuli increased Ser473 kinase activity above basal levels | induced PKB phosphorylation on both Thr308 and Ser473 | no translocation was observed | A portion of PKBα translocated to the PM fraction | more potent activator of PKB phosphorylation than insulin
